Experimental findings from patent publication US20150239831A1, “INHIBITORS OF CENTRAL NERVOUS SYSTEM VASOACTIVE INHIBITORY PEPTIDE RECEPTOR 2” (The Trustees Of Columbia University In The City Of New York, priority 2012, published 2015) are described below.

Where two headings read alike, the source gives them in different places.

Common to all, as to assay type: cell-based
The target in assay [1] is T1, VIPR2 (Homo sapiens, UniProt P41587).
T1 sequence (P41587 24-438): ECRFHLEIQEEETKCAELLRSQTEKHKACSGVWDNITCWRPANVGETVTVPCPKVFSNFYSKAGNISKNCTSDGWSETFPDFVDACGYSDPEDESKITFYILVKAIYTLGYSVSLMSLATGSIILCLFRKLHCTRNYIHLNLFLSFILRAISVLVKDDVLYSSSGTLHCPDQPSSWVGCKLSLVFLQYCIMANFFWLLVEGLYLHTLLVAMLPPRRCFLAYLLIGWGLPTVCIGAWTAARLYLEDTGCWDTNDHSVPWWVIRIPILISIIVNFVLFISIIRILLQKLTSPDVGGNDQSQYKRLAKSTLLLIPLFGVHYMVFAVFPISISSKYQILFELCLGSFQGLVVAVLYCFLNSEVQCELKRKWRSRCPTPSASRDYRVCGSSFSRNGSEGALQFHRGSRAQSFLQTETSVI
Description: BRET-based VIPR2 activation assay (CAMYEL cAMP sensor, CHO cells, VIP background). An excerpt: In such a system, a detector cell is used which expresses both the VIPR2 receptor and “CAMYEL,” a YFP-Epac-RLuc8 BRET sensor construct. This construct includes Epac1, a guanine nucleotide exchange factor activated by direct binding of cAMP, fused with an enhanced YFP and Renilla luciferase 8 (Rluc8) allowing BRET upon cAMP-induced conformational changes (Jiang et al., 2007, J Biol Chem. 282:10576-10584). In response to elevated cAMP levels, there is a conformational change in Epac and therefore a change in the proximity of the fused chromophores, Rluc8 and YFP, resulting in measurable energy transfer. Coexpression of this BRET construct with VIPR2, optionally tagged at the N-terminus with a signal peptide and FLAG epitope (SF-VIPR2), for example in HEK293 cells, allows for detection of a VIPR2-specific response to cAMP. BRET readout may be calculated by quantifying the ratio of the light emitted by the acceptor, YFP (λ=525 nm), over the emission from the donor, RLuc8 (λ=485 nm). The proximity of the donor and acceptor, and therefore the BRET ratio, decreases in the presence of cAMP. In non-limiting specific embodiments, a stable cell line may be generated for this assay using the Flp-In T-Rex system in HEK293 cells. This system allows site-specific single copy integration of the gene of interest and control of expression levels using the Tet-repressor site making receptor expression tetracycline-inducible. For example, a CAMYEL and VIPR2 expressing line may be induced with 0.01 μg/ml tetracycline, then, 24 hours later cells may be collected and distributed into 96-well plates. After treatment with candidate inhibitor compound, for example at 5, 1 and 0.5 μM concentrations, cells may be incubated with the light emitting luciferin, coelenterazine H, for 5 min and incubated for 5 min with VIP at increasing concentrations, for example ranging from […] to 10 μM. The fluorescence and luminescence may then be quantified, for example using a PHERAstar (BMG) plate reader. […] Alternatively, analogous experiments may be performed using human cells harvested from a patient having a VIPR2 copy number variation, for example (but not by way of limitation) pluripotent stem cells prepared from such a patient and then transfected with a CAMYEL construct.
Numerous cellular assays were developed that were able to detect VIP responses absent of interference from non-specific vasopressin receptors using this CHO based system. VIPR2 is a Gs coupled receptor. Activation of VIPR2 by VIP leads to both an elevation in cAMP signaling and the recruitment of β-arrestin. A variety of combinations can be transiently transfect into these CHO cells for the assessment of cellular responses to VIP. For the BRET readout CHO cell lines expressing an YFP-Epac-RLuc8 (CAMYEL) BRET sensor were used to detect changes in cAMP. This construct includes Epac1, a guanine nucleotide exchange factor activated by direct binding of cAMP, fused to an enhanced YFP and RLuc8 allowing a change in BRET upon cAMP-induced conformational changes. The key for medium to high throughput screening assays is the use of stable cell lines allowing the continuous assaying of multiple compounds with the ability to generate large numbers of cells for rapid use. In these lines VIPR2 was expressed as one of the stable cell lines assays. This was introduced into the CHO-Flp-IN to allow the generation of isogenic stable cell lines expressing high levels of VIPR2 under control of the CMV promoter. This has been introduced into this line together with the CAMYEL construct previously described. This allows for detection of VIPR2-specific responses to cAMP. EYFP fluorescence and RLuc8 luminescence is quantified in the presence of 5 μM light-emitting luciferin, coelenterazine H, using a PHERAstar (BMG) plate reader. BRET is calculated by quantifying the ratio of the light emitted by the acceptor, YFP (λ=525 nm), over the emission from the donor, RLuc8 (λ=485 nm).
3. […]
A general note: BRET reads energy transfer from a luciferase to a nearby fluorophore.

Assay [2] addresses T1, VIPR2. Put plainly: % Activity: inhibition of VIP-induced cAMP elevation and β-arrestin recruitment (Table 2). Details: expressed in transfected cells; host or cells: HEK293 cells transfected with VIPR2 in pCDNA3.1 (as described). A digest of the protocol: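 Recruitment of β-arrestin measured by β-gal fragment complementation luminescence in HEK293 cells co-expressing VIPR2-ProLink and β-arrestin2-EA after 2 h compound at 37° C. VIP-driven cAMP rise in stable hVIPR2 HEK293 cells measured by HTRF after 30 min with inhibitor and VIP.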
For orientation: Activated receptors often draw arrestin, which recruitment assays turn into a signal.

In assay [3] the target is T1, VIPR2. Description: Inhibition of VIP-induced cAMP elevation (% Activity cAMP). The arrangement: expressed in transfected cells; host or cells: HEK293 cells transfected with VIPR2 in pCDNA3.1 (as described). A digest of the protocol:
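HEK293 cells stably transfected with human VIPR2 were incubated with inhibitor and VIP for 30 min, then cAMP was detected by HTRF after at least 1 h at room temperature. The 665/620 nm ratio ×10,000 was calculated.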

The target of assay [4] is T1, VIPR2. Description: Inhibition of VIP-induced β-arrestin recruitment (% Activity Arrestin). Details: expressed in transfected cells; host or cells: HEK293 cells transfected with VIPR2 in pCDNA3.1 (as described). The method in brief:
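Read-out is β-gal fragment complementation (luminescence) between ProLink-hVIPR2 and EA-β-arrestin2 in transiently transfected HEK293 cells. Cells rested overnight, then exposed to inhibitor 2 h at 37 °C before detection reagent (5 min–1 h, room temperature); values are % activity against VIP-driven recruitment.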

Where [5] appears, read: Table 3, read-out: IC50 (from BRET).

A word on the IC50: it is the concentration that inhibits the measured activity by half. For `O=C(N[C@H]1c2ccccc2C[C@H]1O)[C@H](Cc1ccccc1)C[C@H](O)CNS(=O)(=O)c1ccc(F)cc1` [Compound X105], the IC50 on VIPR2 [1] (setting [5]) was 6.03 µM.

`O=C(N[C@H]1c2ccccc2C[C@H]1O)[C@H](Cc1ccccc1)C[C@H](O)CNS(=O)(=O)c1ccc2c(c1)CCC2` [Compound X108]: the IC50 on VIPR2 [1] (setting [5]) stood at 10 µM.

Consider `O=C(N[C@H]1c2ccccc2C[C@H]1O)[C@H](Cc1ccccc1)C[C@H](O)CNS(=O)(=O)c1ccc2c(c1)OCCO2` [Compound X109], for which the IC50 at VIPR2 [1] (Table 1, read-out: IC50) worked out at 0.206 µM; on VIPR2 [1] (setting [5]), 33.7 µM.

As for `CO[C@@H]1Cc2ccccc2[C@@H]1NC(=O)[C@H](Cc1ccccc1)C[C@H](O)CNS(=O)(=O)c1ccc(Cl)cc1` [Compound X126], the IC50 on VIPR2 [1] (Table 4, read-out: IC50) was found to be 13.3 µM.

With `CC(O)c1ccc(S(=O)(=O)NC[C@@H](O)C[C@@H](Cc2ccccc2)C(=O)N[C@H]2c3ccccc3C[C@H]2O)cc1` (some centres unmarked) [Compound X107], the IC50 on VIPR2 [1] (setting [5]) was determined as 40.6 µM.

Consider `CO[C@H]1Cc2ccccc2[C@@H]1NC(=O)[C@H](Cc1ccccc1)C[C@H](O)CNS(=O)(=O)c1ccc2c(c1)OCCO2` [Compound X135], for which, at VIPR2 [1] (Table 4, read-out: IC50), the IC50 stood at 28.2 µM.

In the case of `O=C(N[C@H]1c2ccccc2C[C@H]1O)[C@H](Cc1ccccc1)C[C@H](O)CNS(=O)(=O)c1ccc(Cl)cc1` [Compound X106], the IC50 on VIPR2 [1] (Table 1, read-out: IC50) stood at 0.28 µM; at VIPR2 [1] (setting [5]) it was 2.02 µM.

Regarding `CO[C@@H]1Cc2ccccc2[C@@H]1NC(=O)[C@H](Cc1ccccc1)C[C@H](O)CNS(=O)(=O)c1ccc(C(C)=O)cc1` [Compound X124], the IC50 on VIPR2 [1] (Table 4, read-out: IC50) was determined as 76.2 µM.

On to `O=C(N[C@H]1c2ccccc2C[C@H]1O)[C@H](Cc1ccccc1)C[C@H](O)CNS(=O)(=O)c1ccc2c(c1)OCO2` [Compound X110], for which the IC50 at VIPR2 [1] (Table 1, read-out: IC50) came out at 2.16 µM; on VIPR2 [1] (setting [5]), 3.81 µM.

As to `CCc1ccc(S(=O)(=O)NC[C@@H](O)C[C@@H](Cc2ccccc2)C(=O)N[C@H]2c3ccccc3C[C@H]2O)cc1` [Compound X115], the IC50 at VIPR2 [1] (Table 1, read-out: IC50) was determined as 1.13 µM; at VIPR2 [1] (setting [5]) it was 45.8 µM.

The inhibition is the change of the read-out against control, counted positive when it falls. Turning to `O=C(NC[C@@H](O)C[C@@H](Cc1ccccc1)C(=O)N[C@H]1c2ccccc2C[C@H]1O)c1cccc(CCl)c1` [O], the “% Activity” value at VIPR2 [2] is given as 2.4%. For the same molecule, on VIPR2 [3] (Batch 1), the inhibition at 0.5 µM was 0.5%, the inhibition at 1 µM worked out at 2.3% and the inhibition at 5 µM is 15.1%. Moreover, on VIPR2 [4] (Batch 1), the inhibition at 0.5 µM was -8.1%, the inhibition at 1 µM stood at 5.7% and the inhibition at 5 µM is -10.3%.

Regarding `COc1cc(C(=O)NC[C@@H](O)C[C@@H](Cc2ccccc2)C(=O)N[C@H]2c3ccccc3C[C@H]2O)cc(OC)c1OC` [H], the “% Activity” value on VIPR2 [2] amounted to 13.65%. In addition, at VIPR2 [3] (Batch 1), the inhibition at 0.5 µM came out at 15.6%, the inhibition at 1 µM was 20% and the inhibition at 5 µM was found to be 9.3%. At VIPR2 [4] (Batch 1), the inhibition at 0.5 µM was 29.6%, the inhibition at 1 µM is 37.2% and the inhibition at 5 µM turned out to be 18%.

Regarding `O=C(NC[C@@H](O)C[C@@H](Cc1ccccc1)C(=O)N[C@H]1c2ccccc2C[C@H]1O)c1ccc2ccccc2c1` [B], the “% Activity” value on VIPR2 [2] stood at 16.6%. Besides, on VIPR2 [3] (Batch 1), the inhibition at 0.5 µM amounted to 13.2%, the inhibition at 1 µM was determined as 16.3% and the inhibition at 5 µM worked out at 23.5%. In addition, on VIPR2 [4] (Batch 1), the inhibition at 0.5 µM was -2.9%, the inhibition at 1 µM is 11.1% and the inhibition at 5 µM came to 9.7%.

For `O=C(N[C@H]1c2ccccc2C[C@H]1O)[C@H](Cc1ccccc1)C[C@H](O)CNS(=O)(=O)c1ccc(C(=O)N2CCOCC2)cc1` [Compound X099], the “% Activity” value at VIPR2 [2] amounted to 10.05%. In addition, on VIPR2 [3] (Batch 3), the inhibition at 0.5 µM was -1.4%, the inhibition at 1 µM came out at 0.1% and the inhibition at 5 µM is 25.5%. For the same molecule, at VIPR2 [4] (Batch 3), the inhibition at 0.5 µM came out at 4.1%, the inhibition at 1 µM is 1.8% and the inhibition at 5 µM is -5.4%.

In the case of `O=C(NCc1ccccc1)c1ccc(S(=O)(=O)NC[C@@H](O)C[C@@H](Cc2ccccc2)C(=O)N[C@H]2c3ccccc3C[C@H]2O)cc1` [Compound X098], the “% Activity” value at VIPR2 [2] came out at 41.4%. Moreover, at VIPR2 [3] (Batch 3), the inhibition at 0.5 µM worked out at 25%, the inhibition at 1 µM was found to be 32.3% and the inhibition at 5 µM turned out to be 90.6%. For the same molecule, on VIPR2 [4] (Batch 3), the inhibition at 0.5 µM was determined as 4.8%, the inhibition at 1 µM was -2% and the inhibition at 5 µM is -7.7%.

For the molecule `CC(C)CS(=O)(=O)NC[C@@H](O)C[C@@H](Cc1ccccc1)C(=O)N[C@H]1c2ccccc2C[C@H]1O` [Compound A11], on VIPR2 [2], the “% Activity” value amounted to 21.1%. In addition, at VIPR2 [3] (Batch 1), the inhibition at 0.5 µM came out at 13.3%, the inhibition at 1 µM amounted to 15.6% and the inhibition at 5 µM is 22.2%. For the same molecule, at VIPR2 [4] (Batch 1), the inhibition at 0.5 µM worked out at 7.1%, the inhibition at 1 µM was 3.2% and the inhibition at 5 µM is 20%.

Take `O=C(N[C@H]1c2ccccc2C[C@H]1O)[C@H](Cc1ccccc1)C[C@H](O)CNS(=O)(=O)c1ccc([N+](=O)[O-])cc1` [Ref C1, reference compound]: on VIPR2 [1] (Table 1, read-out: IC50), the IC50 is 1.3 µM. In addition, the “% Activity” value on VIPR2 [2] worked out at 84.52%.

For the molecule `O=C(NC[C@@H](O)C[C@@H](Cc1ccccc1)C(=O)N[C@H]1c2ccccc2C[C@H]1O)c1ccccc1[N+](=O)[O-]` [G], the “% Activity” value on VIPR2 [2] is 17.6%. For the same molecule, on VIPR2 [3] (Batch 1), the inhibition at 0.5 µM came out at 17.6%, the inhibition at 1 µM was 14.3% and the inhibition at 5 µM worked out at 9.1%. Besides, on VIPR2 [4] (Batch 1), the inhibition at 0.5 µM was found to be 36.4%, the inhibition at 1 µM stood at 35.1% and the inhibition at 5 µM came to 26.1%.
